In article PMC12348470, “Amino Acid Substitutions in Bacteriocin Lactolisterin BU Reveal Functional Domains Involved in Biological Activity Against Staphylococcus aureus” (Molecules, 2025):
Like-named read-outs stand apart in the source and are kept apart here. Ends that are not written are not given here.

Key:
[1] = system: sheep erythrocytes; assay: Hemolysis assay; format: cell-based; details: for hemolytic activity, in words: 6.25 to 50 µg/mL, sheep erythrocytes, 37 °C, 1 h
Experimental: Hemolytic activity of peptides was assessed as described by Dong et al., with some modifications. Fresh defibrinated sheep blood was obtained from the Institute of Virology, Vaccines and Sera “Torlak” (Belgrade, Serbia). Erythrocytes were washed three times with sterile Tris-buffered saline (TBS, 10 mM TRIS-HCl, pH 7.4, 150 mM NaCl) by centrifugation at 800× g for 5 min and resuspended to a final 2% (v/v) erythrocyte suspension in TBS.
Peptide solutions (0.02 M HCl) were diluted in Tris-buffered saline (TBS, 10 mM TRIS-HCl, pH 7.4, 150 mM NaCl) to final concentrations ranging from 6.25 to 50 µg/mL. In a 96-well flat-bottom plate, 100 µL of peptide solution was mixed with 100 µL of erythrocyte suspension and incubated at 37 °C for 1 h.
After incubation, the plates were centrifuged at 1000× g for 5 min, and 100 µL of the supernatant was transferred to a flat-bottom 96-well plate. Absorbance was measured at 540 nm using a microplate reader (model BioTek Epoch Microplate Spectrophotometer; Agilent Technologies, Winooski, VT, USA).
Hemolysis (%) was calculated relative to a negative control (TBS; 0% lysis) and a positive control (0.1% SDS; 100% lysis) using the formula: Hemolysis (%)=Asample−ATBS/ASDS−ATBS×100
(§1) The assay was performed in triplicate.

[2] = system: lukSPV; assay: Virulence gene expression, RT-qPCR; format: cell-based, S. aureus ATCC 25923; details: half MIC, 16–18 h, 37 °C, normalised to gmk, duplicate
Experimental: (§2) Untreated bacterial cultures in corresponding media served as controls.
(§3) All experiments were performed in duplicate.

[3] = system: icaR; assay: Virulence gene expression, RT-qPCR; format: cell-based, S. aureus ATCC 25923; details: half MIC, 16–18 h, 37 °C, normalised to gmk, duplicate
Experimental: as §2, §3

[4] = system: hla; details: half MIC, 16–18 h, 37 °C, normalised to gmk, duplicate
[5] = system: Danio rerio embryos; assay: Zebrafish embryo toxicity (OECD TG 236); format: in vivo; details: for LC50 (zebrafish embryos): exposure to 120 hpf, 28 °C, 10 embryos/well, triplicate, LL.2 model, mean ± SD, n = 3
Experimental: Embryos were exposed to six different increasing concentrations of each peptide for 5 consecutive days (120 hfp) and examined for survival and signs of toxicity, following toxicological endpoints (Table S1).
The toxicity of synthetic peptide variants was assessed in vivo using Danio rerio embryos, in accordance with OECD Test Guideline 236 (Fish Embryo Acute Toxicity Test) and the European Directive 2010/63/EU on the protection of animals used for scientific purposes, according to Aleksic et al.. All procedures were conducted at the Institute of Molecular Genetics and Genetic Engineering, University of Belgrade.
Wild-type adult zebrafish were maintained under standard laboratory conditions (28 °C; 14:10 h light–dark cycle). Embryos were obtained via pairwise mating and collected within 1 h post-fertilization (hpf). At 5 hpf, the embryos were randomly distributed into 24-well plates (10 embryos/well, 1 mL embryo medium per well) containing embryo water (0.2 mg/mL Instant Ocean® salts in distilled water). Peptides were tested at five concentrations (e.g., 1.56–25 µg/mL) in triplicate. Peptide solvent was used as a negative control. The plates were incubated at 28 °C without media replacement.
Embryonic development was monitored using an inverted microscope (Zeiss Stemi 508; Carl Zeiss Microscopy GmbH, Jena, Germany). Lethal endpoints and sublethal malformations were scored according to OECD guidelines (Table S1). At 120 hpf, the embryos were anesthetized using 0.1% tricaine, photographed, and euthanized via freezing at −20 °C for 24 h.
LC50 values were estimated using the log–logistic binomial model (LL.2) from the drc package in R.
Dose–response curves and LC50 values were estimated using the log–logistic binomial model (LL.2) from the drc package in R [79] (version 2025.05.0). Mortality data were modeled as proportions of dead individuals relative to total individuals tested, and 95% confidence intervals for LC50 were calculated using the delta method.

[6] = system: S. aureus ATCC 25923; assay: Spot-on-the-lawn antimicrobial screening; format: cell-based, Staphylococcus aureus; details: 5 µL spots at 1000, 500, 250, 125 and 62.5 µg/mL on LB soft agar lawn; overnight, 37 °C
Experimental: The antimicrobial activity screening assay of twelve chemically synthesized peptides was evaluated using a spot-on-the-lawn assay against S. aureus ATCC 25923.
S. aureus ATCC 25923 was grown overnight in LB broth, adjusted to 0.5 McFarland (~1 × 10^8 CFU/mL), and mixed 1:100 into molten soft agar (0.7% agar in LB). Five milliliters of this suspension was overlaid onto LB agar plates and allowed to solidify.
Peptide stock solutions (1 mg/mL) were serially diluted in sterile water, and 5 µL of each dilution was carefully spotted onto the surface of the inoculated agar. The plates were dried under a laminar flow hood for 15–20 min and incubated overnight at 37 °C. Zones were observed, and their size and clarity were compared.

[7] = system: Caco-2 cells
Experimental: Caco-2 cells were used in the toxicity assay to model the human intestinal epithelium, as they closely mimic the morphology and function of enterocytes. This makes them a relevant in vitro system for evaluating the potential cytotoxic effects of bacteriocins upon oral exposure or gastrointestinal application.
The cytotoxic effects of peptides were evaluated on human colorectal adenocarcinoma Caco-2 cells (ATCC HTB-37). The cells were cultured in Dulbecco’s Modified Eagle Medium (DMEM, high glucose; Gibco, Thermo Fisher Scientific) supplemented with 10% fetal bovine serum (FBS) and 1% penicillin–streptomycin. The cells were maintained at 37 °C in a humidified incubator with 5% CO2 and subcultured twice weekly, according to Popovic et al..
Cytotoxic effects of peptides on Caco-2 cells were assessed using a lactate dehydrogenase (LDH) release assay according to the manufacturer’s protocol (Lactate Dehydrogenase Cytotoxicity Assay Kit (Thermo Fisher Scientific, Waltham, MA, USA)). The Caco-2 cells were seeded in 96-well flat-bottom plates at a density of 2 × 10^4 cells per well and allowed to reach confluency over 48 h at 37 °C and 5% CO2.
The cells were then incubated for 24 h. Untreated cells (incubated with medium only) served as a negative control, and cells treated with LDH Lysis buffer were used as a positive control.
Following peptide treatment, 50 µL of cell culture supernatant was transferred from each well into a new 96-well plate. LDH reaction mixture (50 µL) was added to each well and incubated at room temperature for 30 min in the dark. The absorbance was measured at 490 nm using a microplate reader.
Cytotoxicity (%) was calculated using the following formula: Cytotoxicity (%) = Asample − Anegative/Apositive − Anegative × 100
as §1

| Sequence | hemolytic activity, in words [1] | lukSPV expression, log2 fold-change vs untreated control ([2]; FBS) | lukSPV expression, log2 fold-change vs untreated control ([2]; LB medium) | icaR expression, log2 fold-change vs untreated control ([3]; FBS) | icaR expression, log2 fold-change vs untreated control ([3]; LB medium) | hla expression, log2 fold-change vs untreated control ([4]; FBS) | hla expression, log2 fold-change vs untreated control ([4]; LB medium) | concentration at which yolk sac retention was observed ([5]; 120 hpf) | LC50 (zebrafish embryos) [5] | zones of inhibition, spot-on-the-lawn assay [6] | TI (LC50/MIC), Caco-2 [7] | concentration inducing lethal egg coagulation ([5]; 120 hpf) | Hemolytic activity (%) at 25 µg/mL ([1]; pH 7.4) | Hemolytic activity (%) at 50 µg/mL ([1]; pH 7.4) | concentration causing general growth delay ([5]; 120 hpf) | concentration causing hemorrhaging ([5]; 120 hpf) | concentration causing pericardial edema ([5]; 120 hpf) | embryo mortality, in words ([5]; 120 h dose–response) |
| --- | --- | --- | --- | --- | --- | --- | --- | --- | --- | --- | --- | --- | --- | --- | --- | --- | --- | --- |
| MWARILGTVAKYGPKAVSWAWQHKWELINMGDLAFRYIQRIWG [Peptide G3A] | no measurable hemolysis up to 25 µg/mL | -1.54 log2 fold change | 1.77 log2 fold change | -1.43 log2 fold change | 0.06 log2 fold change | -0.30 log2 fold change | 0.60 log2 fold change | 6250 ng/mL | 5.69 µg/mL | comparable to the wild-type LBU peptide | 7.03 | – | – | – | – | – | – | – |
| MWGRILATVAKYGPKAVSWAWQHKWELINMGDLAFRYIQRIWG [Peptide G7A] | some membrane-disruptive potential at elevated concentrations (50 µg/mL) | 1.22 log2 fold change | -2.88 log2 fold change | 1.71 log2 fold change | 0.10 log2 fold change | 0.51 log2 fold change | -0.62 log2 fold change | 3130 ng/mL | 2.98 µg/mL | comparable to the wild-type LBU peptide | 5.11 | 6250 ng/mL | – | – | – | – | – | – |
| MWGRILGTVAKYAPKAVSWAWQHKWELINMGDLAFRYIQRIWG [Peptide G13A] | dose-dependent hemolysis | 2.49 log2 fold change | -2.28 log2 fold change | 2.66 log2 fold change | 0.36 log2 fold change | 1.04 log2 fold change | -0.11 log2 fold change | 1560 ng/mL | – | comparable to the wild-type LBU peptide | 1.20 | 1560 ng/mL | 22.69% | 28.86% | 1560 ng/mL | 1560 ng/mL | 1560 ng/mL | nearly complete mortality at concentrations ≥3.1 µg/mL |
